Results published in ChEMBL document CHEMBL4229379, “Synthesis and structure-activity relationship of novel bisindole amidines active against MDR Gram-positive and Gram-negative bacteria” (Eur J Med Chem, 2018).
≈ marks a conversion by molar mass, not a printed value.

Key:
[1] = tested on: Staphylococcus epidermidis; experiment: Antibacterial activity against methicillin-sensitive Staphylococcus epidermidis ATCC 12228 after 18 hrs by CLSI broth microdilution method; format: functional; conditions: ATCC 12228, 18 h
[2] = tested on: Staphylococcus epidermidis; experiment: Antibacterial activity against methicillin-resistant Staphylococcus epidermidis 12-8 after 18 hrs by CLSI broth microdilution method; format: functional; conditions: 12-8, 18 h
Staphylococcus aureus [3] = experiment: Antibacterial activity against methicillin-sensitive Staphylococcus aureus ATCC 29213 after 18 hrs by CLSI broth microdilution method; format: functional; conditions: ATCC 29213, 18 h
Staphylococcus aureus [4] = experiment: Antibacterial activity against methicillin-resistant Staphylococcus aureus 12-33 after 18 hrs by CLSI broth microdilution method; format: functional; conditions: 12-33, 18 h
Enterococcus faecalis [5] = experiment: Antibacterial activity against vancomycin-sensitive Enterococcus faecalis ATCC 29212 after 18 hrs by CLSI broth microdilution method; format: functional; conditions: ATCC 29212, 18 h
Enterococcus faecalis [6] = experiment: Antibacterial activity against vancomycin-resistant Enterococcus faecalis 09-9 after 18 hrs by CLSI broth microdilution method; format: functional; conditions: 09-9, 18 h
Enterococcus faecium [7] = experiment: Antibacterial activity against vancomycin-resistant Enterococcus faecium ATCC 700221 after 18 hrs by CLSI broth microdilution method; format: functional; conditions: ATCC 700221, 18 h
Enterococcus faecium [8] = experiment: Antibacterial activity against vancomycin-sensitive Enterococcus faecium 12-3 after 18 hrs by CLSI broth microdilution method; format: functional; conditions: 12-3, 18 h
Escherichia coli [9] = experiment: Antibacterial activity against extended-spectrum beta-lactamase deficient Escherichia coli ATCC 25922 after 18 hrs by CLSI broth microdilution method; format: functional; conditions: ATCC 25922, 18 h
Escherichia coli [10] = experiment: Antibacterial activity against extended-spectrum beta-lactamase harboring Escherichia coli 12-15 after 18 hrs by CLSI broth microdilution method; format: functional; conditions: 12-15, 18 h
Klebsiella pneumoniae [11] = experiment: Antibacterial activity against extended-spectrum beta-lactamase harboring Klebsiella pneumoniae ATCC 700603 after 18 hrs by CLSI broth microdilution method; format: functional; conditions: Klebsiella pneumoniae, 700603, 18 h
Klebsiella pneumoniae [12] = experiment: Antibacterial activity against new delhi metallo-beta-lactamase-1 harboring Klebsiella pneumoniae ATCC BAA-2146 after 18 hrs by CLSI broth microdilution method; format: functional; conditions: ATCC BAA-2146, 18 h
Klebsiella pneumoniae [13] = experiment: Antibacterial activity against extended-spectrum beta-lactamase harboring Klebsiella pneumoniae 12-8 after 18 hrs by CLSI broth microdilution method; format: functional; conditions: 12-8, 18 h
Pseudomonas aeruginosa [14] = experiment: Antibacterial activity against Pseudomonas aeruginosa ATCC 27853 after 18 hrs by CLSI broth microdilution method; format: functional; conditions: ATCC 27853, 18 h
[15] = tested on: Acinetobacter calcoaceticus; experiment: Antibacterial activity against Acinetobacter calcoaceticus ATCC 19606 after 18 hrs by CLSI broth microdilution method; format: functional; conditions: ATCC 19606, 18 h
Enterobacter cloacae = experiment: Antibacterial activity against Enterobacter cloacae ATCC 43560 after 18 hrs by CLSI broth microdilution method; format: functional; conditions: ATCC 43560, 18 h
Proteus mirabilis = experiment: Antibacterial activity against Proteus mirabilis 12-6 after 18 hrs by CLSI broth microdilution method; format: functional; conditions: 12-6, 18 h
[16] = Cytotoxicity against HEK293T cells assessed as reduction in cell viability after 48 hrs by MTS assay; format: cell-based, HEK-293T; conditions: human
[17] = tested on: Staphylococcus epidermidis; experiment: Antibacterial activity against methicillin-sensitive Staphylococcus epidermidis 12-6 after 18 hrs by CLSI broth microdilution method; format: functional; conditions: 12-6, 18 h
Staphylococcus aureus [18] = experiment: Antibacterial activity against methicillin-resistant Staphylococcus aureus ATCC 33591 after 18 hrs by CLSI broth microdilution method; format: functional; conditions: ATCC 33591, 18 h
Staphylococcus aureus [19] = experiment: Antibacterial activity against methicillin-sensitive Staphylococcus aureus 15 after 18 hrs by CLSI broth microdilution method; format: functional; conditions: Staphylococcus aureus, 15, 18 h
Staphylococcus aureus [20] = experiment: Antibacterial activity against methicillin-sensitive Staphylococcus aureus 12-28 after 18 hrs by CLSI broth microdilution method; format: functional; conditions: 12-28, 18 h
Enterococcus faecalis [21] = experiment: Antibacterial activity against vancomycin-resistant Enterococcus faecalis ATCC 51299 after 18 hrs by CLSI broth microdilution method; format: functional; conditions: ATCC 51299, 18 h
Enterococcus faecalis [22] = experiment: Antibacterial activity against vancomycin-sensitive Enterococcus faecalis 12-5 after 18 hrs by CLSI broth microdilution method; format: functional; conditions: 12-5, 18 h
Enterococcus faecium [23] = experiment: Antibacterial activity against vancomycin-resistant Enterococcus faecium 12-1 after 18 hrs by CLSI broth microdilution method; format: functional; conditions: 12-1, 18 h
Escherichia coli [24] = experiment: Antibacterial activity against extended-spectrum beta-lactamase deficient Escherichia coli 1515 after 18 hrs by CLSI broth microdilution method; format: functional; conditions: Escherichia coli, 1515, 18 h
Escherichia coli [25] = experiment: Antibacterial activity against extended-spectrum beta-lactamase deficient Escherichia coli 12-14 after 18 hrs by CLSI broth microdilution method; format: functional; conditions: 12-14, 18 h
Klebsiella pneumoniae [26] = experiment: Antibacterial activity against extended-spectrum beta-lactamase deficient Klebsiella pneumoniae 7 after 18 hrs by CLSI broth microdilution method; format: functional; conditions: Klebsiella pneumoniae, 7, 18 h
Klebsiella pneumoniae [27] = experiment: Antibacterial activity against extended-spectrum beta-lactamase deficient Klebsiella pneumoniae 12-4 after 18 hrs by CLSI broth microdilution method; format: functional; conditions: 12-4, 18 h
Pseudomonas aeruginosa [28] = experiment: Antibacterial activity against Pseudomonas aeruginosa PAO1 after 18 hrs by CLSI broth microdilution method; format: functional; conditions: PAO1, 18 h
Pseudomonas aeruginosa [29] = experiment: Antibacterial activity against Pseudomonas aeruginosa 12-16 after 18 hrs by CLSI broth microdilution method; format: functional; conditions: 12-16, 18 h
Klebsiella aerogenes = experiment: Antibacterial activity against Enterobacter aerogenes ATCC 13048 after 18 hrs by CLSI broth microdilution method; format: functional; conditions: ATCC 13048, 18 h
Serratia marcescens = experiment: Antibacterial activity against Serratia marcescens ATCC 21074 after 18 hrs by CLSI broth microdilution method; format: functional; conditions: ATCC 21074, 18 h
Providencia rettgeri = experiment: Antibacterial activity against Providencia rettgeri ATCC 31052 after 18 hrs by CLSI broth microdilution method; format: functional; conditions: ATCC 31052, 18 h
Proteus vulgaris = experiment: Antibacterial activity against Proteus vulgaris ATCC 29905 after 18 hrs by CLSI broth microdilution method; format: functional; conditions: ATCC 29905, 18 h
[30] = tested on: Stenotrophomonas maltophilia; experiment: Antibacterial activity against Stenotrophomonas maltophilia ATCC 13636 after 18 hrs by CLSI broth microdilution method; format: functional; conditions: ATCC 13636, 18 h
Citrobacter freundii = experiment: Antibacterial activity against Citrobacter freundii ATCC 43864 after 18 hrs by CLSI broth microdilution method; format: functional; conditions: ATCC 43864, 18 h

SMILES	MIC [1] [µg/mL]	MIC [2] [µg/mL]	MIC (Staphylococcus aureus [3]) [µg/mL]	MIC (Staphylococcus aureus [4]) [µg/mL]	MIC (Enterococcus faecalis [5]) [µg/mL]	MIC (Enterococcus faecalis [6]) [µg/mL]	MIC (Enterococcus faecium [7]) [µg/mL]	MIC (Enterococcus faecium [8]) [µg/mL]	MIC (Escherichia coli [9]) [µg/mL]	MIC (Escherichia coli [10]) [µg/mL]	MIC (Klebsiella pneumoniae [11]) [µg/mL]	MIC (Klebsiella pneumoniae [12]) [µg/mL]	MIC (Klebsiella pneumoniae [13]) [µg/mL]	MIC (Pseudomonas aeruginosa [14]) [µg/mL]	MIC [15] [µg/mL]	MIC (Enterobacter cloacae) [µg/mL]	MIC (Proteus mirabilis) [µg/mL]	CC50 at 48 h [16] [µg/mL]	MIC [17] [µg/mL]	MIC (Staphylococcus aureus [18]) [µg/mL]	other results
CCC(CC)NC(=N)c1ccc2cc(-c3ccc(-c4cc5ccc(C(=N)NC(CC)CC)cc5[nH]4)cc3)[nH]c2c1	0.5 (≈ 0.939 µM)	0.5 (≈ 0.939 µM)	1 (≈ 1.88 µM)	1 (≈ 1.88 µM)	2 (≈ 3.75 µM)	4 (≈ 7.51 µM)	2 (≈ 3.75 µM)	2 (≈ 3.75 µM)	8 (≈ 15 µM)	8 (≈ 15 µM)	16 (≈ 30 µM)	8 (≈ 15 µM)	8 (≈ 15 µM)	16 (≈ 30 µM)	16 (≈ 30 µM)	8 (≈ 15 µM)	16 (≈ 30 µM)	3.42 (≈ 6.41 µM)	0.5 (≈ 0.939 µM)	1 (≈ 1.88 µM)	MIC (Staphylococcus aureus [19]): 2 µg/mL (≈ 3.75 µM); MIC (Staphylococcus aureus [20]): 2 µg/mL (≈ 3.75 µM); MIC (Enterococcus faecalis [21]): 4 µg/mL (≈ 7.51 µM); MIC (Enterococcus faecalis [22]): 4 µg/mL (≈ 7.51 µM); MIC (Enterococcus faecium [23]): 2 µg/mL (≈ 3.75 µM); MIC (Escherichia coli [24]): 8 µg/mL (≈ 15 µM); MIC (Escherichia coli [25]): 8 µg/mL (≈ 15 µM); MIC (Klebsiella pneumoniae [26]): 8 µg/mL (≈ 15 µM); MIC (Klebsiella pneumoniae [27]): 8 µg/mL (≈ 15 µM); MIC (Pseudomonas aeruginosa [28]): 64 µg/mL (≈ 120 µM); MIC (Pseudomonas aeruginosa [29]): 32 µg/mL (≈ 60.1 µM); MIC (Klebsiella aerogenes): 8 µg/mL (≈ 15 µM); MIC (Serratia marcescens): 32 µg/mL (≈ 60.1 µM); MIC (Providencia rettgeri): 8 µg/mL (≈ 15 µM); MIC (Proteus vulgaris): 8 µg/mL (≈ 15 µM); MIC [30]: 16 µg/mL (≈ 30 µM); MIC (Citrobacter freundii): 8 µg/mL (≈ 15 µM)
CCC(C)NC(=N)c1ccc2cc(-c3ccc(-c4cc5ccc(C(=N)NC(C)CC)cc5[nH]4)cc3)[nH]c2c1 (centres undefined)	0.25 (≈ 0.495 µM)	0.5 (≈ 0.991 µM)	0.5 (≈ 0.991 µM)	0.5 (≈ 0.991 µM)	1 (≈ 1.98 µM)	2 (≈ 3.96 µM)	2 (≈ 3.96 µM)	1 (≈ 1.98 µM)	4 (≈ 7.93 µM)	4 (≈ 7.93 µM)	8 (≈ 15.9 µM)	4 (≈ 7.93 µM)	4 (≈ 7.93 µM)	4 (≈ 7.93 µM)	16 (≈ 31.7 µM)	4 (≈ 7.93 µM)	16 (≈ 31.7 µM)	15.4 (≈ 30.6 µM)	1 (≈ 1.98 µM)	0.5 (≈ 0.991 µM)	MIC (Staphylococcus aureus [19]): 0.5 µg/mL (≈ 0.991 µM); MIC (Staphylococcus aureus [20]): 0.5 µg/mL (≈ 0.991 µM); MIC (Enterococcus faecalis [21]): 2 µg/mL (≈ 3.96 µM); MIC (Enterococcus faecalis [22]): 2 µg/mL (≈ 3.96 µM); MIC (Enterococcus faecium [23]): 2 µg/mL (≈ 3.96 µM); MIC (Escherichia coli [24]): 4 µg/mL (≈ 7.93 µM); MIC (Escherichia coli [25]): 4 µg/mL (≈ 7.93 µM); MIC (Klebsiella pneumoniae [26]): 4 µg/mL (≈ 7.93 µM); MIC (Klebsiella pneumoniae [27]): 4 µg/mL (≈ 7.93 µM); MIC (Pseudomonas aeruginosa [28]): 16 µg/mL (≈ 31.7 µM); MIC (Pseudomonas aeruginosa [29]): 16 µg/mL (≈ 31.7 µM); MIC (Klebsiella aerogenes): 4 µg/mL (≈ 7.93 µM); MIC (Serratia marcescens): 8 µg/mL (≈ 15.9 µM); MIC (Providencia rettgeri): 4 µg/mL (≈ 7.93 µM); MIC (Proteus vulgaris): 4 µg/mL (≈ 7.93 µM); MIC [30]: 4 µg/mL (≈ 7.93 µM); MIC (Citrobacter freundii): 4 µg/mL (≈ 7.93 µM)
